Series [1] can be described thus: Plasma stability, human plasma. The class given is in vitro ADME. To be noted: 50 μM, 37° C., over 6 hours (FIG. 12). How it is done: (§1) A 5 μL aliquot of compound solution (10 mM in DMSO) was added to 995 μL of Non Swiss Albino Mouse Plasma (DivBioScience, Breda, Netherlands) or Pooled Normal Human plasma in sodium citrate to obtain a final concentration of 50 μM compound in plasma. The mixture was gently shaken for 6 hours at 37° C. Aliquots of 100 μL were taken at various time points (0, 0.5, 1, 2 and 6 hrs.) and diluted with 400 μL of cold acetonitrile (Sigma-Aldrich, stored at 4° C.). The suspension was centrifuged at 14000 rpm for 5 min. Thereafter, 50 μL of the supernatant was diluted with 950 μL of acetonitrile and analyzed with LC-MS/MS (Waters Acquity H-class UPLC system with ion trap mass spectrometer, Bruker Daltonics Esquire 3000 plus, and Agilent 1100 Series LC system). Samples were analyzed in triplicate and plotted against a standard curve (compound at 3.12-100 μM in plasma and diluted in acetonitrile as described above).

The nature of a further series: Chemical stability. It counts as physicochemical. To be noted: 37° C. and pH 7.4 for 24 hours (FIG. 11). Here is the method: A 10 μL aliquot of compound solution (10 mM in DMSO) was added to 990 μL DMSO (100 μM) and further diluted with […] to a stock solution of 500 nM. The mixture was incubated at 37° C. Aliquots of 100 μL were taken at various time points (0, 0.5, 1, 2, 3, 6 and 24 hrs) and analyzed with LC-MS/MS (Waters Acquity H-class UPLC system with ion trap mass spectrometer, Bruker Daltonics Esquire 3000 plus, and Agilent 1100 Series LC system). Samples were analyzed in triplicate and plotted against a standard curve; compound at 31-500 nM in buffer solution of pH 7.4 (10 mM Potassium Phosphate, BD Gentest).

Series [2] deals with T1, ERBB4 (Homo sapiens, UniProt Q15303).
T1 construct: host or cells: U2OS
T1 sequence (Q15303 26-1308): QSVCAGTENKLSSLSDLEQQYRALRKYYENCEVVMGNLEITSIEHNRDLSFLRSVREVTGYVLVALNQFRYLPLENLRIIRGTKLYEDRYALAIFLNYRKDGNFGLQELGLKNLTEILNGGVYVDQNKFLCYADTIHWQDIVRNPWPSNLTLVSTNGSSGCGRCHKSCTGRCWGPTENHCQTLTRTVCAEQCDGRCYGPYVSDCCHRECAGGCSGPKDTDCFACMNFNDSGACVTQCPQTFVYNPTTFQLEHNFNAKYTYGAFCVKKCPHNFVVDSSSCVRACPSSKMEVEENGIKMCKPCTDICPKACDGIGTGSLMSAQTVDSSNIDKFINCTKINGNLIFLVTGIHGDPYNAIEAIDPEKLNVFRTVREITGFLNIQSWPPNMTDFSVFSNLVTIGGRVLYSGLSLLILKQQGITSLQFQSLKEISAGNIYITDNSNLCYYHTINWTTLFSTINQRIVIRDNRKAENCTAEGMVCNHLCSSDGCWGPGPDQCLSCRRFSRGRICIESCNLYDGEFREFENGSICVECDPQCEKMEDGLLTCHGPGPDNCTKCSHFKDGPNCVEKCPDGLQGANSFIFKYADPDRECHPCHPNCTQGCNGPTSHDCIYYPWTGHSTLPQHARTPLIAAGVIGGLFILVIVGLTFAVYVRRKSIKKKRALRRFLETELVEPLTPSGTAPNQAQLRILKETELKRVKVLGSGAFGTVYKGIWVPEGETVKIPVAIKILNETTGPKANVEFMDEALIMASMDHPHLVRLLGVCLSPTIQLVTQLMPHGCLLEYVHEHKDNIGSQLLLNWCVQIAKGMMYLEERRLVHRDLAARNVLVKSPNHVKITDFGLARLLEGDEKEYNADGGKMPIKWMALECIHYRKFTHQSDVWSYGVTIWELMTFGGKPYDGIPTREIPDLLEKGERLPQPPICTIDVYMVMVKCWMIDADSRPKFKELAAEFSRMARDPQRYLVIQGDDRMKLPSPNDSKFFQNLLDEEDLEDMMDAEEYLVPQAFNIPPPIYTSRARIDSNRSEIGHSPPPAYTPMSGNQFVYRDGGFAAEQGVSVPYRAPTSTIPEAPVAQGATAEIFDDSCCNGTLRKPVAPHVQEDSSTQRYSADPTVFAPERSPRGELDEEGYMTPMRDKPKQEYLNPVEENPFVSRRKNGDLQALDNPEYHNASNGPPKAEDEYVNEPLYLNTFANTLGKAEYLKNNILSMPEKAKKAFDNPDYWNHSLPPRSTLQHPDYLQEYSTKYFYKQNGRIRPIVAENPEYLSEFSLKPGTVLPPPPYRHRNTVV
Briefly: PathHunter ERBB4/ERBB4 dimerization assay, compounds on top of 0.1 μM NRG-1 (identification of modulators). It counts as cell-based. To be noted: for EC50: on top of 0.1 μM NRG1; for Emax: on top of 0.1 μM NRG1, relative to NRG1 (set as 100%); for behaviour from the shape of the dose-response curves: on top of 0.1 μM neuregulin-1 (FIG. 1). Here is the method: (§2) Following 1-12 passages, U2OS ERBB4/ERBB4 dimerization cell line (Eurofins, 93-0961C3) were seeded at 10,000 cells/well in 100 μL cell plating reagent (Eurofins, 93-0563R0A) in white walled 96-well plates (PerkinElmer, 6005680) and incubated for 24h at 37° C. in humidified atmosphere of 5% CO2 in air. Cells were treated with 10 μL of compound (prepared at 11×, Enamine), 10 μM Heregulin-β1 (NRG-1) (DiscoverX, 92-1031 or Peprotech, 100-03) or PBS. […] Cells were subsequently incubated for 6 hours at 37° C., 5% CO2. Then 110 μL PathHunter Flash Detection Reagents (93-0247) were added to each well and cells were incubated at room temperature for 1 hour (covered from light). Afterwards luminescence signal was measured using the Luminoskan Ascent (Thermofisher). Dose response curves of the compounds were performed in 2-fold (0,0625 μM-32 μM).
Cells were treated with compound (prepared at 22×, 10 min pre-incubation) together with NRG-1 (0.1 μM final concentration, Peprotech, 100-03), or NRG-1 (0.1 μM final concentration) or PBS.
The EC50 and the Emax of the compounds on top of 0.1 μM NRG1 is depicted in Table 3 relative to NRG1 (set as 100%).

Series [3] in a line: Plasma stability, mouse plasma. It counts as in vitro ADME. To be noted: 50 μM, 37° C., over 6 hours (FIG. 12). Here is the method: as §1
The nature of series [4]: Metabolic stability, mouse liver microsomes. The class given is in vitro ADME. To be noted: for t1/2 mouse: mouse liver microsomes; for half-life at 10 µM: mouse, liver microsomes, pH 7.4, mouse liver microsomes, read-out: t1/2 mouse. Here is the method:
A mixture of 713 μL milliQ water (Millipore, MA, USA), 200 μL 0.5 M phosphate buffer (pH 7.4, BD Diagnostic Systems, MD, USA), 50 μL NADPH regenerating system solution A (BD Biosciences, CA, USA), 10 μL NADPH regenerating system solution B (BD Biosciences, CA, USA) and 2 μL compound (5 mM in DMSO) was prepared and heated for 5 min at 37° C. Twenty-five μL of liver microsomes (0.5 mg protein/mL, Corning B.V. Life Sciences, Amsterdam, Netherlands) was added to the mixture and 20 μL samples were withdrawn at 0, 0.25, 0.5 and 1, 2, 4, 6 and 24 hours. Eighty μL (4×20 μL) of cold acetonitrile (Sigma-Aldrich, MO, USA) was added to the samples on ice for 10 min. Afterwards, the mixtures were centrifuged at 13,000 rpm for 5 min at 4° C. Seventy-five μL of an acetonitrile/water (10/90) mixture was added to 25 μL supernatant and the obtained samples were analyzed by LC-MS/MS (Waters Acquity H-class UPLC system with ion trap mass spectrometer, Bruker Daltonics Esquire 3000 plus, and Agilent 1100 Series LC system) in triplicate.
A general note: Microsomes from liver hold many membrane-bound enzymes, among them those of drug oxidation.

Series [5] deals with T1, ERBB4. Briefly: PathHunter ERBB4/ERBB4 dimerization assay, dose-response curves. To be noted: U2OS ERBB4/ERBB4 dimerization cell line, 6 hours, compound alone; for Emax: NRG-1 = 100. It counts as cell-based. How it is done:
as §2
From these curves, the EC50 and the Emax of the compounds was calculated.

Series [6] is described as follows: Solubility in PBS (absorbance). It counts as physicochemical. To be noted: aqueous buffer, kinetic from dmso stock, 37° C., 2 hours (FIG. 10), read-out: solubility: concentration at which easily soluble. Here is the method: A dilution series (0.16, 0.31, 0.62, 1.25, 2.5 and 5 mM) was made starting with a compound stock solution of 10 mM in DMSO. Aliquot of 4 μL was taken out of every dilution and added to 196 μL PBS in a 96-well plate. The plate was shaken for 10 seconds, incubated at 37° C. for 2 hours and thereafter absorbance was measured. Samples were analyzed in duplicate.

The text below walks through data of US20240002351A1, “QUINAZOLIN-4-ONE AND THIENO[2,3-D]PYRIMIDIN-4-ONE INHIBITORS OF ERBB4 (HER4) FOR USE IN THE TREATMENT OF CANCER” (UNIVERSITEIT ANTWERPEN, priority 2021, published 2024).

One may read the EC50 as the midpoint of the concentration-response curve. Lower therefore signals an effect from little substance. As usually defined, the Emax is the size of the effect at its maximum, as opposed to the concentration needed. `O=C(NC1CC1)C(Sc1nc2ccccc2c(=O)n1C1CCCC1)c1ccccc1` (centres unmarked) [Compound 1]: the “plasma stability, human plasma” value in series [1] is “stable”. The chemical stability result in the series “Chemical stability” was “chemically stable”. On ERBB4 [2], the half-maximal effective concentration (EC50) is ~1.6 µM, the Emax came to 256 ± 126% and the “behaviour from the shape of the dose-response curves” value (shortened to “behaviour from the shape”) was “ago-allosteric modulators”. For the same molecule, the “plasma stability, mouse plasma” value in series [3] was “stable”. In addition, in series [4], the “t1/2 mouse” value was determined as 15 min and the half-life at 10 µM was 14 to 15 min. Further, on ERBB4 [5], the EC50 came to 8.92 µM and the Emax was found to be 33.1 ± 4.21%. Also, the solubility at 2 h in series [6] was < 25 µM.
For the molecule `Cc1sc2nc(SC(C)C(=O)Nc3sccc3C(N)=O)n(CC(C)C)c(=O)c2c1C` (centres unmarked) [Compound 6], in series [1], the “plasma stability, human plasma” value is listed as “stable”. Moreover, in the series “Chemical stability”, the chemical stability result is listed as “chemically stable”. Further, at ERBB4 [2], the concentration giving a half-maximal response (EC50) is ~13.9 µM, the maximal effect (Emax) is 112 ± 14% and the “behaviour from the shape” value was “weak or silent allosteric modulators”. Also, the “plasma stability, mouse plasma” value in series [3] is reported as “stable”. For the same molecule, in series [4], the “t1/2 mouse” value was 8 min and the half-life at 10 µM lay in the range of 8 to 12 min. In addition, at ERBB4 [5], the EC50 came to 6.47 µM and the maximum response (Emax) is 10.3 ± 3.01%. Further, the solubility at 2 h in series [6] is < 25 µM.
With `CC(Sc1nc2ccccc2c(=O)n1C1CCCC1)c1nc2ccccc2n1C(F)F` (centres unmarked) [Compound 7], the “plasma stability, human plasma” value in series [1] is “stable”. Also, the chemical stability entry in the series “Chemical stability” is “chemically stable”. On ERBB4 [2], the maximum response (Emax) came to 139 ± 19% and the “behaviour from the shape” value was “weak or silent allosteric modulators”. In series [3], the “plasma stability, mouse plasma” value was “stable”. In series [4], the “t1/2 mouse” value was found to be 14 min and the half-life at 10 µM fell in the range of 14 to 15 min. Besides, on ERBB4 [5], the EC50 was found to be 10.4 µM and the Emax came out at 9.76 ± 2.46%. Also, in series [6], the solubility at 2 h was < 25 µM.
